Read-outs that look alike come from different tables or passages of the source. Blank lines part the entries; values can stand above or below the molecule they belong to.
Columns and labels:
[1] = set-up: method as in PMID 390116; conditions: mean ± standard error; cited from earlier work
[2] = rats; cited from earlier work
[3] = Pharmacokinetics of VPA from DBS drug levels after intravenous bolus in rats; type: in vivo; conditions: Sprague-Dawley, rat, dried blood spots (whole blood), iv bolus 200 mg/kg, mean ± SD; for AUC(0-t): read-out: Area under the curve (AUC0–8 h); for clearance: read-out: Clearance (CL) (converted); for half-life: read-out: HL Lambda Z (terminal elimination half-life) (converted); for MRT: read-out: Mean residence time (MRT); for Vd: read-out: Volume of distribution (Vd)
Description: Sprague-Dawley rats (7–8 weeks old, males: 10, females: 10) were obtained from the Comparative Medicine Center (CMC) of NUS. The rats were housed in a specific pathogen free animal facility (24 °C, 60% relative humidity) at CMC and kept on a 12-h light/dark cycle with free access to food and water. Twenty-four hours before the study, a polyethylene tubing (I.D. 0.58 mm, O.D. 0.965 mm, Becton Dickinson, Sparks, MD 21152, USA) was implanted into the right jugular vein under isoflurane anesthesia. This catheter was used for drug injection and blood sampling.
At 9 am on the study day, five rats from each gender were administered VPA intravenously at a dose of 200 mg/kg body weight (treatment group). The rest of the 5 rats from each gender were given sodium chloride 0.9% intravenously, as the placebo control group. Prior to VPA administration, blood samples (approximately 300 µL) from each of the 10 male rats and 10 female rats were collected and kept in an ice box until they were processed. After VPA/saline injection, blood samples were collected at 0.5, 2.5, 5, 8 and 24 h, respectively, from the 20 rats. The 6 time points were anticipated to capture the metabolite fluctuations in a day. Within 30 min of collection, the blood samples were spotted in duplicates of 25 µL onto Guthrie paper (UK Neonatal Screening Laboratories Network, Whatman 903®) and were left to dry in the fume hood for at least 3 h, the minimum time required for complete dryness. After drying, the DBS were punched, and the cores (6 mm) obtained were placed inside the respective Eppendorf tubes. All the acquired DBS were stored at −80 °C until processing for analysis. One DBS was used for metabolomic analysis and the other one was used for drug level quantification.
Extraction of VPA from DBS was carried out using 480 µL of acetonitrile and 20 µL of 1 N NaOH, vortexed for 1 min and followed by sonication for 5 min. The resulting extracts were centrifuged at 3500× g, 22 °C for 15 min [29, 30]. An amount of 400 µL of the supernatant were transferred into 15 mL Kimble centrifuge glass tubes for drying under a stream of nitrogen at 30 °C, followed by the removal of water using toluene and drying under nitrogen again. The dried sample was then derivatized using 50 µL MSTFA with 1% TMCS with incubation at 70 °C for an optimum period of 50 min. […] After vortexing for 1 min, 80 µL of the final volume was transferred into a 200 µL conical base inert glass insert, placed inside a 2 mL amber autosampler glass vial.
An assay for quantification of VPA concentrations in DBS was optimized in accordance to the International Conference of Harmonization (ICH) guideline. The settings were as follows: an injection temperature of 200 °C, ion source temperature of 220 °C, split ratio of 1:5, the starting temperature set at 90 °C for 0.2 min, with initial gradient ramp at 10 °C/min to 120 °C and held for 0.5 min. The temperature was then increased at 65 °C/min up to 285 °C and held for another 0.5 min. The temperature ramp was then reduced to 10 °C/min to reach a temperature of 291 °C and held for 0.2 min, before continuing at 60 °C/min to reach a final temperature of 300 °C, with a hold at 300 °C for 5 min. Selective ion monitoring (SIM) mode was applied for identifier ions with an m/z value of 201 and qualifying ions with m/z values of 145 and 129. A calibration curve was established with 6 concentrations, ranging from 0.5 µg/mL to 5 mg/mL.
Concentration-time profiles of VPA after intravenous bolus injection were fitted into a non-compartmental model (WinNonlin Professional, Version 5.1, Pharsight Corporation, Mountain View, CA, USA). The pharmacokinetic parameters obtained included the area under the DBS concentration versus time curve (AUC0–8 h), apparent volume of distribution (Vd) clearance (Cl), terminal elimination half-life (HL Lambda Z) and mean residence time (MRT) of VPA.

[4] = set-up: method as in PMID 3146521; conditions: female rats, 200 mg/kg oral gavage, cited from earlier work
[5] = human; cited from earlier work
[6] = set-up: method as in PMID 390116; conditions: whole blood concentrations, cited from earlier work
[7] = source not stated; cited from earlier work
[8] = both sexes, all rats (male and female pooled)

AUC(0-t) ([3]; female rats): 363 ± 18.7 µg·h/mL
clearance ([3]; female rats): 2 mL/min
half-life ([3]; female rats): 121 ± 14.4 min
MRT ([3]; female rats): 1.46 ± 0.4 h
Vd ([3]; female rats): 0.21 ± 0.01 L
AUC(0-t) ([3]; male rats): 126 ± 39.2 µg·h/mL
clearance ([3]; male rats): 8.5 mL/min
half-life ([3]; male rats): 103 ± 10.8 min
MRT ([3]; male rats): 1.14 ± 0.28 h
Vd ([3]; male rats): 0.82 ± 0.23 L
AUC(0-t) [3, 8]: 245 ± 133 µg·h/mL
clearance [3, 8]: 5.33 mL/min
half-life [3, 8]: 112 ± 15.6 min
MRT [3, 8]: 1.3 ± 0.36 h
Vd [3, 8]: 0.51 ± 0.36 L
SMILES: CCCC(CCC)C(=O)O [VPA, 2-propyl-pentanoic acid]
Plasma/whole blood concentrations ratio [1]: 1.46 ± 0.03
Protein bound [2]: 64%
AUC ([4]; plasma): 1019 ± 769 µg·h/mL
Maximum concentration (Cmax) at 0.5 h ([4]; plasma): 341 ± 18 µg/mL
t1/2 (plasma half-life) [4]: 1.0 ± 0.2 h
Protein bound [5]: 90%
t1/2 ([6]; male rats, 150 mg/kg): 40.8 min
CL ([6]; rats dosed at 15 mg/kg): 0.525 ± 0.065 L/h
Vd ([6]; rats dosed at 15 mg/kg): 0.155 ± 0.025 L

SMILES: CC(C)CCC[C@@H](C)[C@H]1CC[C@H]2[C@@H]3CC=C4C[C@@H](O)CC[C@]4(C)[C@H]3CC[C@]12C [Cholesterol]
LogP [7]: 7.11

SMILES: CCCCCCCCCCCCCCCC(=O)O [Palmitic acid]
LogP [7]: 6.26

SMILES: C[C@H](N)C(=O)O [Alanine]
LogP [7]: -0.68
